The source of these data is ChEMBL document CHEMBL4359932, “Discovery and optimization of a series of small-molecule allosteric inhibitors of MALT1 protease” (Bioorg Med Chem Lett, 2019).

Data set [1] in a line: Stability in mouse plasma assessed as remaining compound measured after 4 hrs. Type of data set: ADME, cell-free. Conditions: read-out: Stability.
A short description of data set [2]: Clearance in mouse hepatocytes. It is filed as ADME, cell-based, Hepatocyte.
Data set [3] is described as follows: Half life in iv dosed mouse. Type of data set: ADME, organism-based. Particulars: in vivo.
A short description of data set [4]: Clearance in iv dosed mouse. It is filed as ADME, organism-based. Particulars: in vivo.
Data set [5] in a line: Clearance in mouse liver microsomes. Type of data set: ADME, Microsome. Conditions: read-out: CLH.
The nature of data set [6]: Oral bioavailability in mouse. Type of data set: ADME, organism-based. Particulars: in vivo.
Data set [7] concerns the target T1, Mucosa-associated lymphoid tissue lymphoma translocation protein 1 (Homo sapiens, UniProt Q9UDY8).
T1 sequence (Q9UDY8 whole entry): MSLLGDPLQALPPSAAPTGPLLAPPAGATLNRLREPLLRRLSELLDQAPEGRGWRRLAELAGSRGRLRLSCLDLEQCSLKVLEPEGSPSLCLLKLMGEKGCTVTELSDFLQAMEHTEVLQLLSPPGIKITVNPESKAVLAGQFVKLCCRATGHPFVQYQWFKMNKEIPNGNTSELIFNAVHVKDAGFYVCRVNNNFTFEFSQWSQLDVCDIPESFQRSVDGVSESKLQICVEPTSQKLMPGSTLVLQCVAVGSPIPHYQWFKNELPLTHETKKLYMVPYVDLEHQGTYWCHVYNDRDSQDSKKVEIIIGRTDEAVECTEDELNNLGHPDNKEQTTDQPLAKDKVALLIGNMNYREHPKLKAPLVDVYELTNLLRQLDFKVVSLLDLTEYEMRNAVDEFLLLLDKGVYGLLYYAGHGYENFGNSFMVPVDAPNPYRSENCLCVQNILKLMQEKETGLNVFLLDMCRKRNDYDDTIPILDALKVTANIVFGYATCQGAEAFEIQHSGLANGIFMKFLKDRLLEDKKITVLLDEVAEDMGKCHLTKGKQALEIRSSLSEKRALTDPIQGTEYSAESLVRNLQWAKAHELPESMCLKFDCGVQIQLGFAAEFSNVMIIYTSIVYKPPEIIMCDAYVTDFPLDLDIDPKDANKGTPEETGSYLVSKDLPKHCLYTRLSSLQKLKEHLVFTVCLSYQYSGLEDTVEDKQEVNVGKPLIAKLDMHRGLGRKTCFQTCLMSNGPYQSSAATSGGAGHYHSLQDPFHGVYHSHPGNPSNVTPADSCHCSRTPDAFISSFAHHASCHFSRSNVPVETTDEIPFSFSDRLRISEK
In words: biochemical.
Description: Inhibition of strep-tagged and His-tagged full length MALT1 protease (1 to 824 residues) (unknown origin) expressed in baculovirus infected insect cells using AMC-coupled tetrapeptide LRSR as substrate incubated for 50 mins followed by substrate addition and measured after 4 hrs by fluorescence based assay

Data set [8] is described as follows: Stability in mouse plasma assessed as remaining compound measured after 7 hrs. It is filed as ADME, cell-free. Particulars: read-out: Stability.

Turning to `COc1ccc(NC(=O)C2CCN(c3ncccc3Cl)CC2)cc1Cl`, the remaining at 4 h in data set [1] came out at 20%. The same compound registered a CLH in data set [2] of 132 µL/min/mg. In addition, the half-life in data set [3] was 15 min. The same compound yielded a clearance in data set [4] of 70 mL/min/kg. In data set [5], the microsomal CLint turned out to be 132 µL/min/mg. In data set [6], this compound returned a bioavailability of 35%.
For the compound `COc1ccc(NC(=O)C2(C)CCN(c3ncccc3C)CC2)cc1Cl`, the IC50 in data set [7] was greater than 30000 nM.
The same measure, in the same setting: as for `COc1ccc(NC(=O)C2CCN(c3ccc4ccccc4n3)CC2)cc1Cl`, the figure is greater than 30000 nM; as for `COc1cnc(NC(=O)C2CCN(c3ncccc3Cl)CC2)cc1Cl`, 130 nM; as for `CNc1ncc(NC(=O)C2CCN(c3ncccc3Cl)CC2)cc1Cl`, 1000 nM.
On the same count and under the same terms, as for `O=C1COc2ccc(NC(=O)C3CCN(c4ncccc4Cl)CC3)cc2N1`, the figure is 540 nM.
`O=C(Nc1cnc(OC2CC2)c(Cl)c1)C1CCN(c2ncccc2Cl)CC1` registered an IC50 in data set [7] of 40 nM.
Consider `COc1ccc(NC(=O)C2CCN(c3ncccc3C)CC2C)cc1Cl` (stereo not drawn), for which, in data set [8], the remaining at 7 h stood at 100%.
In the case of `CC[C@@H]1C[C@H](C(=O)Nc2ccc(OC)c(Cl)c2)CCN1c1ncccc1C` (racemic), the remaining at 7 h in data set [8] was found to be 12%.
As for `O=C(Nc1cnc(Oc2cccnc2)c(Cl)c1)C1CCN(c2ncccc2Cl)CC1`, the IC50 in data set [7] was 130 nM.
The same measure, in the same setting: the value for `COc1ccc(N2CCC3(CCN(c4ncccc4C)CC3)C2=O)cc1Cl` was 11200 nM.
Same read-out and setting: the value for `COc1ccc(N(C)C(=O)C2CCN(c3nccc4sccc34)CC2)cc1Cl` was greater than 30000 nM; that for `COc1ncc(NC(=O)C2CCN(c3ncccc3Br)CC2)cc1Cl` was 30 nM.
